Experimental data taken from US20260035345A1 (Lento Bio, Inc., priority 2023, published 2026).
Values after ≈ are worked out from the molar mass of the structure shown. Where two headings read alike, the source gives them in different places. Non-standard residues stand in square brackets, D forms with d. Residues, ends and D or L forms follow the SMILES beside them. Aib = CC(C)(N)C(=O)O

How the values were obtained:
[1] = test system: ocular lenses from 8-month-old C57BL/6 mice; assay: Ex vivo lens stiffness screen, single-point variant of the coverslip method; set-up: species or system mouse; details: 20 mM; for Avg. % Compress.: lenses incubated 12 hours at 37° C., 588.0 mg coverslip weight
Experimental: An ex vivo screen was conducted to evaluate the effect of multiple compounds on lens stiffness using a more efficient variant of the coverslip method (Cheng, et al., J. Vis. Exp., 111: 53986 (2016). Our variant uses a single measurement point to enable multidrug screening, utilizing a weight deemed optimal based on coverslip quantity-response curves. Previously dissected and frozen eyes from 8-month-old C57BL/6 mice were thawed, and the ocular lenses were removed via micro-dissection. Next, intact ocular lenses were immersed and incubated in test compound solutions at various concentrations for 12 hours at 37° C. Individual washed lenses were placed into a divot in a solution-filled plexiglass measurement chamber, where uncompressed axial diameter was assessed. Then 3 glass coverslips glued together, with a total weight of 588.0 mg, were placed on top of the lens, and the axial diameter was remeasured. Change in lens stiffness was calculated as the ratio between the axial diameter of compressed lens to the axial diameter of the unweighted lens (compressed/uncompressed), with higher ratios indicative of more flexibility. To address an important limitation with ex vivo lens treatment (that lens stiffness increases over time, by default, when the lens is removed from the eye post-mortem), we compared treatment with NAC to freshly dissected 8-month lenses and observed natural stiffening occurred during the 12-hour incubation period (10.34% mean compression, n=10).

[2] = Maximum soluble concentration in artificial tears; type: physicochemical; details: saline or isotonic
[3] = test system: Two-month-old C57BL/6 mice; assay: Toxicology and dosing optimization in mice, 1 week of eyedrops (Example 5); type: in vivo, mouse
Experimental: A study was conducted to assess the maximum tolerable dose of N-(2-fluoro-2-methyl-1-propylcarbonyl)-cysteine (and its S-acetylated counterpart, N-(2-fluoro-2-methyl-1-propylcarbonyl)-S-acetylcysteine for lens stiffness reduction and to assess via histology whether any safety issues arose from 1 week of treatment with these compounds, particularly in the lens and cornea.
Two-month-old C57BL/6 mice were treated 2×/day with treatment compounds (see sample groups (n=5) and concentrations below). Animals were assessed for itching and scratching/blinking after dosing, hyperemia, lid swelling, discharge, and squinting, all on a scale of 1-4. Those scoring were blinded to treatment groups. Following euthanasia eyes were fixed and stained with H+E, and corneal and lens anatomy in the two highest concentration groups considered tolerable were assessed.

[4] = test system: Eight-month-old C57BL/6 mice; assay: One-month eyedrop tolerability and histology in the aqueous humor study; type: in vivo; details: 100 mM eyedrops 2×/day for 1 month
Experimental: (§1) Eight-month-old C57BL/6 mice were given […] eyedrops of 100 mM N-(2-fluoro-2-methyl-1-propylcarbonyl)-cysteine, 100 mM N-pivaloylcysteine, or 100 mM NAC for 1 month at 2×/day. 10 mice were present in each group. […] Safety via histology was positive.

[5] = Aqueous humor LC/MS concentration comparison (corneal penetration); type: in vivo, mouse; details: 100 mM eyedrops 2×/day for 1 month; for concentration at 1 h: C57BL/6, mouse, aqueous humor, topical
Experimental: A study was conducted to assess the degree to which N-(2-fluoro-2-methyl-1-propylcarbonyl)-cysteine penetrated the mouse cornea, as compared to NAC and N-pivaloylcysteine.
as §1
On the final day aqueous humor was drawn from the eyes (average of 1-5 μL extracted) 1 hour after final dose, and the concentration of each compound quantified via LC/MS (column: Atlantis T3, 100×2.1 mm, 5 μm; mobile phases: A: Water/Formic Acid (1000/5, v/v), B: Acetonitrile/Methanol/Formic Acid (50/50/0.3, v/v/v).

[6] = test system: lens stiffness in 7-month-old C57BL/6 mice; assay: In vivo efficacy: lens stiffness after eyedrop treatment (Example 4); set-up: species or system mouse; details: for average total compression: eyedrops, 28-day treatment, fluoro compound 200 mM, LACE 1.5% (PBS vehicle); for lens stiffness versus vehicle treated mice: fluoro compound 200 mM (also versus LACE), LACE 1.5%
Experimental: Rationale and goal: To determine the effect of N-acetylcysteine (NAC) and its variants on reducing lenses stiffness in vivo.
The following sample groups were tested in 7-month-old C57BL/6 mice: vehicle (artificial tears)(40 mice), N-acetylcysteine 20 mM (20 mice), N-(2-fluoro-2-methyl-1-propylcarbonyl)-cysteine 200 mM (10 mice), LACE (lipoic acid choline ester) 1.5% (PBS vehicle) (10 mice), 2-month-old mice (untreated) (7 mice).
Vehicle-treated mice averaged 199.34 micrometers total compression (std. dev 32.16). […] Mice treated with LACE averaged 209.68 micrometers total compression (std. dev 28.16).

[7] = test system: lens stiffness in 7-month-old C57BL/6 mice; assay: Initial in vivo lens stiffness test with NAC eyedrops for one month; set-up: species or system mouse
Experimental: An initial in vivo test was conducted on NAC utilizing 7-month-old C57BL/6 mice subsequently treated for one month 2×/day with both 100 mM and 20 mM NAC eyedrops (artificial tears was used as the vehicle). During the last day, animals were sacrificed, eyes enucleated, and lenses were removed. Lens stiffness was measured by the same assay as ex vivo, with measurements taken within 5-10 minutes of lens removal. Both a 588 mg and 1047 mg weight were used in the assay.

[8] = test system: ocular lenses from 8-month-old C57BL/6 mice; assay: Ex vivo lens stiffness screen, single-point variant of the coverslip method; set-up: species or system mouse; details: 1-hour of incubation with NAC
aged mouse lenses = details: background statement; cited from earlier work
[9] = listed as N-(2-fluoro-2-methyl-1-oxopropyl)-cysteine
[10] = drawn 1 hour after final dose, LC/MS

CCC(C)(C)C(=O)N[C@@H](CS)C(=O)O
Avg. % Compress. [1]: 6.29%

CC(=O)SCC(NC(=O)C(C)(C)F)C(=O)O (stereo not drawn)
solubility ([2]; artificial tears, read-out: maximum soluble concentration in artificial tears): 300 mM (≈ 75.4 mg/mL)

CC(C)(F)C(=O)N[C@@H](CS)C(=O)O [listing 1 of 2 here]
improvement over NAC in ex vivo lens stiffness [1, 9]: significant improvement
rank of improvement among tested derivatives, ex vivo lens stiffness [1, 9]: highest mean significance as well as the highest significance vs vehicle

CC(C)(F)C(=O)N[C@@H](CS)C(=O)O [listing 2 of 2 here]
solubility [2]: 200 mM (≈ 41.8 mg/mL)
tolerability ([3]; 200 mM, 2×/day for 1 week): tolerable
Histology of treated lenses ([3]; mouse, in vivo): entirely normal
Safety via histology [4]: positive
increase of tolerability issues including blinking or hyperemia over time [4]: No noticeable increase
aqueous humor concentration and corneal penetration over NAC and N-pivaloylcysteine [5]: improved
concentration at 1 h [5, 10]: 47 µM
improvement over NAC in vivo ([6]; 200 mM vs N-acetylcysteine 20 mM): significant improvement
lens stiffness lost to aging from 2-8 months restored ([6]; 200 mM, relative to 2-month-old untreated mice and 8-month vehicle): 67.9%
average total compression [6]: 281.05 micrometers
lens stiffness versus vehicle treated mice [6]: significantly reduced
rank of improvement among tested derivatives, ex vivo lens stiffness [1]: superior lens stiffness reducing efficacy
Avg. % Compress. [1]: 6.87%

COC(C)(C)C(=O)N[C@@H](CS)C(=O)O
Avg. % Compress. [1]: 6.38%

CC(C)(C(=O)N[C@@H](CS)C(=O)O)c1ccccc1
Avg. % Compress. [1]: 6.18%

CC(C)(N)C(=O)N[C@@H](CS)C(=O)O (H-[Aib]-Cys-OH)
Avg. % Compress. [1]: 5.68%

C[N+](C)(C)CCOC(=O)CCCC[C@@H]1CCSS1 [LACE, Lipoic acid choline ester, reference compound]
average total compression [6]: 209.68 micrometers
lens stiffness versus vehicle treated mice [6]: did not significantly improve

CC(C)C(=O)N[C@@H](CS)C(=O)O [N-(isopropylcarbonyl)-cysteine]
Avg. % Compress. [1]: 6.71%

CCCCCC(=O)N[C@@H](CS)C(=O)O [N-(n-pentylcarbonyl)-cysteine]
Avg. % Compress. [1]: 4.31%

CC(=O)N[C@H](CS)C(=O)O [N-acetyl-D-cysteine]
improvement versus vehicle (lens stiffness) ([7]; a later study, conditions not given): significant improvement versus vehicle but at a reduced power versus NAC

CC(=O)N[C@@H](CS)C(=O)O [N-acetyl-cysteine, reference compound]
improvement in lens stiffness over vehicle ([7]; 20 mM eyedrops 2×/day for one month): minor and insignificant improvement
improvement in lens stiffness over vehicle ([7]; 100 mM eyedrops 2×/day for one month, 588 mg and 1047 mg weights): significant improvement
improvement of lens stiffness compared to vehicle [8]: 2.07%
aqueous humor concentration [5, 10]: 17 out of 20 samples falling below the limit of detection
Avg. % Compress. [1]: 5.76%
lens stiffness compared to untreated (vehicle) control lenses ([1]; ex vivo screen): significantly improved

O=C(Cc1ccccc1)N[C@@H](CS)C(=O)O [N-benzylcarbonyl-cysteine]
Avg. % Compress. [1]: 4.38%

O=C(N[C@@H](CS)C(=O)O)C1CC1 [N-cyclopropylcarbonyl-cysteine]
Avg. % Compress. [1]: 6.02%

CN(C)C(=O)N[C@@H](CS)C(=O)O [N-dimethylaminocarbonyl-cysteine]
Avg. % Compress. [1]: 4.19%

O=C(N[C@@H](CS)C(=O)O)c1ccccc1 [N-phenylcarbonyl-cysteine]
Avg. % Compress. [1]: 5.98%

CC(C)(C)C(=O)N[C@@H](CS)C(=O)O [N-pivaloylcysteine, N-(2,2-dimethyl-1-oxopropyl)-cysteine]
Safety via histology [4]: positive
increase of tolerability issues including blinking or hyperemia over time [4]: No noticeable increase
concentration at 1 h [5, 10]: 38 µM
improvement over NAC in ex vivo lens stiffness [1]: significant improvement
rank of improvement among tested derivatives, ex vivo lens stiffness [1]: largest improvement
Avg. % Compress. [1]: 6.82%

CC(=O)N[C@@H](CSC(C)=O)C(=O)O [S,N-diacetylcysteine]
lens stiffness in ex vivo treated aged mouse lenses (aged mouse lenses): reduces lens stiffness
